# Measurements: ChEMBL document CHEMBL5214900, “Design, Synthesis, and Biological Evaluation of Membrane-Active Bakuchiol Derivatives as Effective Broad-Spectrum Antibacterial Agents” (J Med Chem, 2021)
# Active and inactive are the calls of the source. The rule behind the calls is not given here.
# Legend:
# [1] = system: Klebsiella pneumoniae; test: Antibacterial activity against Klebsiella pneumoniae ATCC 10031 assessed as inhibition of bacterial growth incubated for 24 hrs by CLSI based broth dilution method; type: functional
# [2] = system: Escherichia coli; test: Antibiofilm activity against Escherichia coli ATCC 25922 assessed reduction in biofilm formation at 6.25 ug/ml measured after 24 hrs by crystal violet staining based assay relative to control; type: functional; set-up: scale not given: the % may be the effect or the level left; details: dose 6.25 µg/ml
# [3] = system: Escherichia coli; test: Antibacterial activity against Escherichia coli ATCC 25922 assessed as eradication of preformed bacterial biofilm by measuring residual biofilm viability at 3.125 ug/ml incubated for 24 hrs by crystal violet staining based assay relative to control; type: functional; details: dose 3.125 µg/ml
# [4] = system: Escherichia coli; test: Antibacterial activity against Escherichia coli ATCC 25922 assessed as fold increase in MIC incubated for 24 hrs in presence of 2.5 mM Ca2+ by CLSI based broth dilution method; type: functional
# [5] = Cytotoxicity against HEK293 cells assessed as cell viability incubated for 24 hrs by CCK-8 assay; type: toxicity, cell-based; details: human
# [6] = system: Staphylococcus aureus; test: Antibacterial activity against Staphylococcus aureus ATCC 29213 assessed as eradication of preformed bacterial biofilm by measuring residual biofilm viability at 25 ug/ml incubated for 24 hrs by crystal violet staining based assay relative to control; type: functional; details: dose 25 µg/ml
# [7] = system: Staphylococcus aureus; test: Antibacterial activity against Staphylococcus aureus ATCC 29213 assessed as eradication of preformed bacterial biofilm by measuring residual biofilm viability at 0.78 ug/ml incubated for 24 hrs by crystal violet staining based assay relative to control; type: functional; details: dose 0.78 µg/ml
# [8] = Cytotoxicity against mouse NCTC clone 929 cells assessed as cell viability at 6.25 ug/ml incubated for 24 hrs by CCK-8 assay relative to control; type: toxicity, cell-based; details: at 6.25 µg/mL, read-out: Activity
# [9] = system: Staphylococcus aureus; test: Antibacterial activity against Staphylococcus aureus NCTC10442 assessed as fold increase in MIC incubated for 24 hrs in presence of 4.5 mM K+ by CLSI based broth dilution method; type: functional
# [10] = system: Escherichia coli; test: Bactericidal activity against Escherichia coli ATCC 25922 assessed as inhibition of bacterial regrowth at 4 to 8 times MIC measured after 24 hrs by time-killing assay; type: functional, organism-based
# [11] = system: Klebsiella pneumoniae; test: Antibacterial activity against Klebsiella pneumoniae ATCC 14581 assessed as inhibition of bacterial growth incubated for 24 hrs by CLSI based broth dilution method; type: functional
# [12] = system: Staphylococcus aureus; test: Antibacterial activity against Staphylococcus aureus ATCC 29213 assessed as fold increase in MIC incubated for 24 hrs in presence of 140 mM Na+ by CLSI based broth dilution method; type: functional
# [13] = system: Staphylococcus aureus; test: Antibacterial activity against Staphylococcus aureus ATCC 29213 assessed as eradication of preformed bacterial biofilm by measuring residual biofilm viability at 12.5 ug/ml incubated for 24 hrs by crystal violet staining based assay relative to control; type: functional; details: dose 12.5 µg/ml
# [14] = system: Lipoteichoic acid; test: Displacement of BODIPY-TR-cadaverine from Bacillus subtilis Lipoteichoic acid at 1 times MIC measured for 30 mins by fluorescence based microplate reader assay relative to control
# [15] = system: Staphylococcus aureus; test: Antibiofilm activity against Staphylococcus aureus ATCC 29213 assessed reduction in biofilm formation at 0.39 ug/ml measured after 24 hrs by crystal violet staining based assay relative to control; type: functional; set-up: scale not given: the % may be the effect or the level left; details: dose 0.39 µg/ml
# [16] = system: Staphylococcus aureus; test: Antibiofilm activity against Staphylococcus aureus ATCC 29213 assessed reduction in biofilm formation at 3.125 ug/ml measured after 24 hrs by crystal violet staining based assay relative to control; type: functional; set-up: scale not given: the % may be the effect or the level left; details: dose 3.125 µg/ml
# [17] = Cytotoxicity against HEK293 cells assessed as cell viability at 12.5 ug/ml incubated for 24 hrs by CCK-8 assay relative to control; type: toxicity, cell-based; details: human, at 12.5 µg/mL, read-out: Activity
# [18] = system: Staphylococcus aureus; test: Antibacterial activity against Staphylococcus aureus ATCC 29213 assessed as fold increase in MIC incubated for 24 hrs in presence of 1 mM Mg2+ by CLSI based broth dilution method; type: functional
# [19] = system: Cell membrane; test: Disruption of membrane integrity in Pseudomonas aeruginosa ATCC 9027 assessed as increase in fluorescence intensity at 1 to 8 times MIC by SYTOX green dye based fluorescence analysis; type: subcellular; details: DDE = dose-dependent effect
# [20] = system: Pseudomonas aeruginosa; test: Antibacterial activity against Pseudomonas aeruginosa ATCC 9027 in C57BL/6 mouse model of bacterial keratitis assessed as log reduction in number of viable bacterial colonies in infected cornea at 0.8 mg/ml, TOP administered 4 times a day for 3 consecutive days; type: functional; details: time 3 day
# [21] = system: Staphylococcus aureus; test: Bactericidal activity against Staphylococcus aureus ATCC 29213 assessed as log reduction in viable bacteria at 8 times MIC measured after 8 hrs by time-killing assay; type: functional
# [22] = system: Escherichia coli; test: Antibacterial activity against Escherichia coli ATCC 25922 assessed as eradication of preformed bacterial biofilm by measuring residual biofilm viability at […] ug/ml incubated for 24 hrs by crystal violet staining based assay relative to control; type: functional; details: dose […] microg/ml, 1.56 ug/mL
# [23] = system: Escherichia coli; test: Antibacterial activity against Escherichia coli ATCC 25922 assessed as eradication of preformed bacterial biofilm by measuring residual biofilm viability at 12.5 ug/ml incubated for 24 hrs by crystal violet staining based assay relative to control; type: functional; details: dose 12.5 µg/ml
# [24] = Cytotoxicity against HEK293 cells assessed as cell viability at 50 ug/ml incubated for 24 hrs by CCK-8 assay relative to control; type: toxicity, cell-based; details: human, at 50 µg/mL, read-out: Activity
# [25] = system: Staphylococcus aureus; test: Antibacterial activity against Staphylococcus aureus NCTC10442 assessed as fold increase in MIC incubated for 24 hrs in presence of 140 mM Na+ by CLSI based broth dilution method; type: functional
# [26] = system: Lipopolysaccharide (LPS); test: Displacement of BODIPY-TR-cadaverine from Escherichia coli Lipopolysaccharide at 8 times MIC measured for 30 mins by fluorescence based microplate reader assay relative to control
# [27] = system: Escherichia coli; test: Antibiofilm activity against Escherichia coli ATCC 25922 assessed reduction in biofilm formation at 0.39 ug/ml measured after 24 hrs by crystal violet staining based assay relative to control; type: functional; set-up: scale not given: the % may be the effect or the level left; details: dose 0.39 µg/ml
# [28] = Hemolytic activity in rabbit RBC measured after 1 hrs by multimode reader assay; type: toxicity, cell-based, Oryctolagus cuniculus, Erythrocyte; details: rabbit red blood cells (erythrocytes)
# [29] = system: Escherichia coli; test: Antibacterial activity against Escherichia coli ATCC 25922 assessed as fold increase in MIC incubated for 24 hrs in presence of 4.5 mM K+ by CLSI based broth dilution method; type: functional
# [30] = Cytotoxicity against HEK293 cells assessed as cell viability at 3.125 ug/ml incubated for 24 hrs by CCK-8 assay relative to control; type: toxicity, cell-based; details: human, at 3.125 µg/mL, read-out: Activity
# [31] = system: Lipopolysaccharide (LPS); test: Displacement of BODIPY-TR-cadaverine from Escherichia coli Lipopolysaccharide at 1 times MIC measured for 30 mins by fluorescence based microplate reader assay relative to control
# [32] = system: Staphylococcus aureus; test: Antibacterial activity against Staphylococcus aureus ATCC 29213 assessed as eradication of preformed bacterial biofilm by measuring residual biofilm viability at […] ug/ml incubated for 24 hrs by crystal violet staining based assay relative to control; type: functional; details: dose […] microg/ml, 1.56 ug/mL
# [33] = system: Staphylococcus aureus; test: Induction of drug resistance in Staphylococcus aureus ATCC 29213 assessed as fold change in MIC measured after 19 passages by CLSI based broth dilution method; type: functional
compound,measurement,setting,value
C=C[C@@](C)(/C=C/c1ccc(OCCCCN(CCCN(C)C)CCCN(C)C)cc1)CCC=C(C)C,MIC,[1],3.12 µg/mL
same,Activity,[2],95.7%
same,Activity,[3],49.85%
same,fold change (FC),[4],<2
same,CC50 at 24 h,[5],28.6 µg/mL
same,Activity,[6],11.49%
same,Activity,[7],88.63%
same,"viability at 24 h, 6.25 ug/ml",[8],84.9%
same,fold change (FC),[9],<2
same,Activity,[10],Active
same,MIC,[11],3.12 µg/mL
same,fold change (FC),[12],<2
same,Activity,[13],24.19%
same,Activity,[14],25.4%
same,Activity,[15],1.65%
same,Activity,[16],96.53%
same,"viability at 24 h, 12.5 ug/ml",[17],84.9%
same,fold change (FC),[18],<2
same,Activity,[19],Dde
same,log(activity),[20],2.95
same,log(activity),[21],3.52
same,Activity,[22],69.09%
same,Activity,[23],10.78%
same,"viability at 24 h, 50 ug/ml",[24],14.4%
same,fold change (FC),[25],<2
same,Activity,[26],85.6%
same,Activity,[27],4.04%
same,HC50 at 1 h,[28],113 µg/mL
same,fold change (FC),[29],<2
same,"viability at 24 h, 3.125 ug/ml",[30],94.1%
same,Activity,[31],36.9%
same,Activity,[32],75.68%
same,fold change (FC),[33],< 4
